One assay addresses T1, PFCDPK1 (P. falciparum) (Plasmodium falciparum, UniProt P62344).
T1 construct: purchased DiscoveRx Corporation (KinomeScan)
Nature of the assay: KinomeScan kinase panel. It counts as binding.

For a further assay, the target named is T2, PFPK5 (P. falciparum) (Plasmodium falciparum, UniProt P61075).
T2 construct: purchased DiscoveRx Corporation (KinomeScan)
The experiment in a line: KinomeScan kinase panel. It counts as binding.

Another assay addresses T3, c-MET (Homo sapiens, UniProt P08581).
T3 construct: cell line MKN45 having endogenous high expression wild type c-MET; endogenous in cells; host or cells: MKN45
Nature of the assay: c-MET kinase phosphorylation in MKN45 cells (sandwich ELISA). In kind it is cell-based. The conditions noted are these: without stimulation, mean value of two testing results, read-out: IC50 values in the cell, c-MET. As for the experimental part: (§1) Inhibitory activity on the kinases in tumor cells: In this example, the compound prepared in Example 10, N1-[4-[[7-[[1-(diethoxyphosphorylmethyl)-4-piperidinyl]methoxyl]-6-methoxyl-4-quinolyl]oxyl]-3-fluorophenyl]-N1′-(4-fluorophenyl)cyclopropane-1,1-dicarboxamide is tested in tumor cells by ProQinase GmbH corporation (Breisacher Str. 117, D-79106 Freiburg, Germany. www.proqinase.com) for the inhibitory activity on the following kinases: c-KIT, c-MET, VEGFR2 and PDGFR-β. The test includes the following steps:
(§2) Firstly, the compound according to present invention is dissolved in dimethyl sulfoxide (DMSO) to prepare a 10 mM stock solution, which is diluted serially according to the concentration range shown in Table 6:
c-MET kinase: in the test experiment of c-MET kinase phosphorylation in the cells, human gastric cancer cell line MKN45 having endogenous high expression wild type c-MET (wild-type c-MET) is used. Such high expression of c-MET causes the tyrosine of c-MET receptor kinases constantly self-phosphorylated without ligands. MKN45 cells are inoculated in DMEM culture solution containing 10% FCS in a multi-well cell culture dish. The compound of the invention is added to the cells after serum overnight starvation, then the cells are cultured in a medium without serum. […]

In assay [1] the target is T4, VEGFR2 (Homo sapiens, UniProt P35968). Nature of the assay: KinomeScan kinase panel. More on the design: purchased DiscoveRx Corporation (KinomeScan service). In kind it is binding. As for the experimental part: In this example, the compound prepared in Example 10, N1-[4-[[7-[[1-(diethoxyphosphorylmethyl)-4-piperidinyl]methoxyl]-6-methoxyl-4-quinolyl]oxyl]-3-fluorophenyl]-N1′-(4-fluorophenyl)cyclopropane-1,1-dicarboxamide is tested for the inhibitory effect in the 442-kinase panel of KinomeScan™ (www.kinomescan.com) from DiscoveRx Corporation (4215 Sorrento Valley Blvd, San Diego, Calif. 92121) at 1000 nM of the compound concentration, the results are shown in the following Table 5:
For the detailed information of the screening technique, see Fabian, M. A. et al, Nat., Biotechnol. 2005, 23, 329 and Karaman, M. W. et al, Nat., Biotechnol. 2008, 26, 127. It can be seen from the following representative results that, the compound according to the present invention has significant inhibitory effect on kinases including c-Met, KDR or VEGFR2, RET, PDGFR-β, c-KIT, Flt3, MEK5, DDR1, LOK, CSF1R, EPHA7, EPHA8, EPHB6, MKNK2, BLK, HIPK4, HCK, Flt4 and the mutants thereof

Assay [2] addresses T4, VEGFR2. Nature of the assay: VEGFR2 kinase phosphorylation in HUE cells (sandwich ELISA). It counts as cell-based. Also noted: cell line HUE having endogenous high expression vascular endothelial growth factor-R2 (VEGFR2); endogenous in cells; host or cells: HUE. The following applies: VEGF-A 100 ng/mL 3 min, mean value of two testing results, read-out: IC50 values in the cell, VEGFR2. How it is done: as §1, §2
VEGFR2 kinase: in the test experiment of VEGFR2 kinase phosphorylation in the cells, a spontaneous immortalized human umbilical vein endothelial cell line HUE having endogenous high expression vascular endothelial growth factor-R2 (VEGFR2) is used. When these cells are simulated with human vascular endothelial growth factor-A (VEGF-A), it causes the tyrosine of VEGFR2 receptor kinases self-phosphorylated. HUE cells are inoculated in endothelial cell growth medium (ECGM) containing 10% FCS in a multi-well cell culture dish. […]
(In general: In an ELISA, binding on a coated surface is turned into a signal by an enzyme label.)

Molecules are shown by their SMILES.

One may read the IC50 as the midpoint of a concentration-inhibition curve.

T4 sequence (P35968 20-1356): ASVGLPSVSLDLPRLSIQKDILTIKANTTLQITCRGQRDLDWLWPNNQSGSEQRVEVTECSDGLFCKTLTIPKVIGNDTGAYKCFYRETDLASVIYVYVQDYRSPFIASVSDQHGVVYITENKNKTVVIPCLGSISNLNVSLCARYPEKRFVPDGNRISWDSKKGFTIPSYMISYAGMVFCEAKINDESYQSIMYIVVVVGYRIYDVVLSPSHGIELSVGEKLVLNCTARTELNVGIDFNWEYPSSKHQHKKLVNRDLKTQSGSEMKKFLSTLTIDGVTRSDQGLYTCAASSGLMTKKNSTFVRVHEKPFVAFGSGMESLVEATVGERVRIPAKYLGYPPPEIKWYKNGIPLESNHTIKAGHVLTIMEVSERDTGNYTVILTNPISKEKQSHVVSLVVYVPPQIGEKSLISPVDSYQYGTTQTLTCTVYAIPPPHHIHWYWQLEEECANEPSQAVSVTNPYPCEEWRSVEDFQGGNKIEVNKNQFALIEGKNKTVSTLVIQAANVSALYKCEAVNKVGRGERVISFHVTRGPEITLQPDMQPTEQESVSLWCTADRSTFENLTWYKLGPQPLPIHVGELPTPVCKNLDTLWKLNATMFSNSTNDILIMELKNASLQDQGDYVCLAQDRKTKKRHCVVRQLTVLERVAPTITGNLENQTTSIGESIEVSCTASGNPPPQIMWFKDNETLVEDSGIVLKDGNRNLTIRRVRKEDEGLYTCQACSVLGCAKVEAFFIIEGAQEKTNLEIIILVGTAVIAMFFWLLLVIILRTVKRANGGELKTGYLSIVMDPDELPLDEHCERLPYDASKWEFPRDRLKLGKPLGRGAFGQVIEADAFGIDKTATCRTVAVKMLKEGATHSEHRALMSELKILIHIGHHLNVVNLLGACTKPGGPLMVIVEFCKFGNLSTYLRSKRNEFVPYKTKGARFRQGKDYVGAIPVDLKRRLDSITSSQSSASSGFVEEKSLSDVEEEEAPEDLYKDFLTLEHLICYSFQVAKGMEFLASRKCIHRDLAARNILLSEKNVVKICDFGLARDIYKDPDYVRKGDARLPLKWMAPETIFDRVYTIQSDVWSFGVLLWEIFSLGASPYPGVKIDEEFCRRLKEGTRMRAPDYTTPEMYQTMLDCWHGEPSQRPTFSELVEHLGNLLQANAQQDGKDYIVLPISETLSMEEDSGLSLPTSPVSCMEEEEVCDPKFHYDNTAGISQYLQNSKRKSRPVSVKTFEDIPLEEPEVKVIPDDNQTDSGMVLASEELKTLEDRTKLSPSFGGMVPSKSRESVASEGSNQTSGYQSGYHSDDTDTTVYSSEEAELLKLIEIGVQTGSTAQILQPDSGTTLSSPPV
T1 sequence (P62344 whole entry): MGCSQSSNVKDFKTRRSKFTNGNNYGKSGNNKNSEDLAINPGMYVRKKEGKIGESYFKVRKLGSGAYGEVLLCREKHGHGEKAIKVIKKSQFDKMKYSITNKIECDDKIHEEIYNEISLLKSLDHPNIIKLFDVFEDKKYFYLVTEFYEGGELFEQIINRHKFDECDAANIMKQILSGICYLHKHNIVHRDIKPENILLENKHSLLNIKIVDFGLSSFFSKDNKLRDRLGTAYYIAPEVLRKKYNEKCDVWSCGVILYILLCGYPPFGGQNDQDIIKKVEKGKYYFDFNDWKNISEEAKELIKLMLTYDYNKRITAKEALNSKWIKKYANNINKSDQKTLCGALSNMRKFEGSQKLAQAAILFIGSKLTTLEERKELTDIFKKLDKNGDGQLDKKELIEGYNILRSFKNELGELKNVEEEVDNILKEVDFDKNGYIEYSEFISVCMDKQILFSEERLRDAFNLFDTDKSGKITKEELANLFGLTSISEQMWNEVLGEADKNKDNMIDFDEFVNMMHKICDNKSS
T2 sequence (P61075 whole entry): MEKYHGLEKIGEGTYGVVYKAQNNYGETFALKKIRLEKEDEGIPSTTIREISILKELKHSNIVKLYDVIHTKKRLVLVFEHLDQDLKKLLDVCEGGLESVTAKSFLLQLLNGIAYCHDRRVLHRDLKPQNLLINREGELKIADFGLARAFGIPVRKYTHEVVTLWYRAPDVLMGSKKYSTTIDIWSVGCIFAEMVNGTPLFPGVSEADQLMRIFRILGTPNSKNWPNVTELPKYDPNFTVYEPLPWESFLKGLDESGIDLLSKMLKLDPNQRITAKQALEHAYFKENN
T3 sequence (P08581 25-1390): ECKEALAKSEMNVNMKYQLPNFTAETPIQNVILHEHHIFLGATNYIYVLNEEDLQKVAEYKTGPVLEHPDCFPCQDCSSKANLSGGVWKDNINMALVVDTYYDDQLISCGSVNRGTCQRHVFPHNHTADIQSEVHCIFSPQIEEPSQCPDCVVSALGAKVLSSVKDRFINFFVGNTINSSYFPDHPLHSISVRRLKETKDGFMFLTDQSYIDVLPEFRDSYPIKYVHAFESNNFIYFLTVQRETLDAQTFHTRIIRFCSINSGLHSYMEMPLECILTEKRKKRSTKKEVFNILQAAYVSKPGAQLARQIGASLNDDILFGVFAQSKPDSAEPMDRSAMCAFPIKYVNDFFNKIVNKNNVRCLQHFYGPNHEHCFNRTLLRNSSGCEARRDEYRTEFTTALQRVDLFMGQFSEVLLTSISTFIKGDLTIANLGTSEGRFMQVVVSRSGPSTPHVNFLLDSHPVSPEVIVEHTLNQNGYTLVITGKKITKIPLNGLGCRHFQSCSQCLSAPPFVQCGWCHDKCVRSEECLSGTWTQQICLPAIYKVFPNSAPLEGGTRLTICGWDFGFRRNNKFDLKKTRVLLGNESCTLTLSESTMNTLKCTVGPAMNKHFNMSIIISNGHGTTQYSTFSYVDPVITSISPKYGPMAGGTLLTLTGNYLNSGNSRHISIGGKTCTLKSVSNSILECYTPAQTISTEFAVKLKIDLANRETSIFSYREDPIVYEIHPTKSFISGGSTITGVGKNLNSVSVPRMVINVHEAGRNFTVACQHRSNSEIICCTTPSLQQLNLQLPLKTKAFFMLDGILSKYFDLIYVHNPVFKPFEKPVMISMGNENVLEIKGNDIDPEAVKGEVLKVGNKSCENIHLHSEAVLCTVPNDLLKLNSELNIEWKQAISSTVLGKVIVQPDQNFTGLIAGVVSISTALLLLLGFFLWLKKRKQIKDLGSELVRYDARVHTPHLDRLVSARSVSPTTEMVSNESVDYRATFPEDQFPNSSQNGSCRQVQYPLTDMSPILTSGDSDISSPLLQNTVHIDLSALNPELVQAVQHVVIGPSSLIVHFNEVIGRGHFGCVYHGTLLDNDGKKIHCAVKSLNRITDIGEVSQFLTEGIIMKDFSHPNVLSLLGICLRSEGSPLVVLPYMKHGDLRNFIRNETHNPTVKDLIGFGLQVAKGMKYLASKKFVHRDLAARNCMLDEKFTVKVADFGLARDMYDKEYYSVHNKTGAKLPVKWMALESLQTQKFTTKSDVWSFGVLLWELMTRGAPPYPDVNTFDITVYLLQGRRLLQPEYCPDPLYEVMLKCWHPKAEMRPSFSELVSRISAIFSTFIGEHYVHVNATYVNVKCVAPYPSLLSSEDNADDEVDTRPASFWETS

As to `CCOP(=O)(CN1CCC(COc2cc3nccc(Oc4ccc(NC(=O)C5(C(=O)Nc6ccc(F)cc6)CC5)cc4F)c3cc2OC)CC1)OCC` [Example 10, N1-[4-[[7-[[1-(diethoxyphosphorylmethyl)-4-piperidinyl]methoxyl]-6-methoxyl-4-quinolyl]oxyl]-3-fluorophenyl]-N1′-(4-fluorophenyl)cyclopropane-1,1-dicarboxamide], the “% Ctrl@1000 nM” value was 84 % Ctrl at PFCDPK1 (P. falciparum), 100 % Ctrl at PFPK5 (P. falciparum) and 3.9 % Ctrl on VEGFR2 [1]. Moreover, the IC50 at c-MET amounted to 17 nM; at VEGFR2 [2], 0.43 nM.

(Values after patent US8933230B2, “Phosphorus-containing group-substituted quinoline, its preparation process, medical composition containing the compounds and application” (priority 2011, dated 2015).)
